Measurements from ChEMBL document CHEMBL1201862, “PubChem BioAssay data set” (2004).
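Dose response: 5 concentrations. Exposure: 48 h. Format: 96-well plates. Endpoint: linear interpolation; highest concentration if not reached. At the GI50, growth is halved.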 Active and inactive are the calls of the source. Cut-off read from the data, not from the text of the source: active = GI50 up to about 1.1 µM and inactive = higher.

How the values were obtained:
Assay in all cases: inhibition of tumour cell growth, NCI panel, 48 h
M19-MEL = test system: M19-MEL
COLO 205 = test system: COLO 205
DLD-1 = test system: DLD-1
A549 = test system: A549
UACC-257 = test system: UACC-257
EKVX = test system: EKVX
TK-10 = test system: TK-10
OVCAR-5 = test system: OVCAR-5
HCT-116 = test system: HCT-116
K562 = test system: K562
OVCAR-8 = test system: OVCAR-8
SR = test system: SR
IGROV-1 = test system: IGROV-1
SN12C = test system: SN12C
SNB-19 = test system: SNB-19
786-0 = test system: 786-0

Structure (SMILES) | GI50 (M19-MEL) | GI50 (COLO 205) | GI50 (DLD-1) | GI50 (A549) | GI50 (UACC-257) | GI50 (EKVX) | GI50 (TK-10) | GI50 (OVCAR-5) | GI50 (HCT-116) | GI50 (K562) | GI50 (OVCAR-8) | GI50 (SR) | GI50 (IGROV-1) | GI50 (SN12C) | GI50 (SNB-19) | GI50 (786-0)
COc1ccc(C(=O)C#Cc2cnc(O)nc2O)cc1 | 8.93 µM (inactive) | 11.9 µM (inactive) | 6.32 µM (inactive) | 20.7 µM (inactive) | 11.9 µM (inactive) | 19.4 µM (inactive) | 9.31 µM (inactive) | 17.1 µM (inactive) | 6.03 µM (inactive) | 3.61 µM (inactive) | 8.81 µM (inactive) | 2.76 µM (inactive) | > 42.2 µM (inactive) | 6.32 µM (inactive) | 17.5 µM (inactive) | 9.06 µM (inactive)
COc1ccc([C@@H]2CC(=O)NCCCCNCCCN2)cc1 | > 100 µM (inactive) | > 100 µM (inactive) | > 100 µM (inactive) | > 100 µM (inactive) | > 100 µM (inactive) | > 100 µM (inactive) | > 100 µM (inactive) | > 100 µM (inactive) | > 100 µM (inactive) | > 100 µM (inactive) | > 100 µM (inactive) | > 100 µM (inactive) | > 100 µM (inactive) | > 100 µM (inactive) | > 100 µM (inactive) | > 100 µM (inactive)
COc1ccc(CCc2cc(OC)cc(OC)c2)cc1 | 25.3 µM (inactive) | 12 µM (inactive) | 23.1 µM (inactive) | 19.2 µM (inactive) | 51.4 µM (inactive) | 45.1 µM (inactive) | 54.2 µM (inactive) | > 61.5 µM (inactive) | 24.3 µM (inactive) | 3.34 µM (inactive) | 66.4 µM (inactive) | 9.71 µM (inactive) | 43 µM (inactive) | 45.9 µM (inactive) | > 100 µM (inactive) | 47.1 µM (inactive)
O=C(/C=C/c1ccccc1Cl)c1cccc2ccccc12 | 11 µM (inactive) | 19 µM (inactive) | 8.51 µM (inactive) | 16.7 µM (inactive) | 18 µM (inactive) | 12.8 µM (inactive) | 15.8 µM (inactive) | 13.6 µM (inactive) | 3.71 µM (inactive) | 4.38 µM (inactive) | 1.97 µM (inactive) | 2.52 µM (inactive) | 15.3 µM (inactive) | 48.6 µM (inactive) | 4.69 µM (inactive) | 5.15 µM (inactive)
CCOC1=C2C(C)(CCC3[C@@]4(C)C=CC(=O)C(C)(C)C4CC(O)[C@@]23C)C(c2ccoc2)C1=O (stereo not given in full) | 18.9 µM (inactive) | 13.1 µM (inactive) | 11.4 µM (inactive) | 21.1 µM (inactive) | 23.7 µM (inactive) | 18.5 µM (inactive) | 25.2 µM (inactive) | 19.2 µM (inactive) | 11.3 µM (inactive) | 7.24 µM (inactive) | 18.3 µM (inactive) |  | 12.4 µM (inactive) | 25.1 µM (inactive) | 27.2 µM (inactive) | 15.3 µM (inactive)
CCOP(=O)(OCC)/C(C#N)=C\c1ccsc1 | > 100 µM (inactive) | > 100 µM (inactive) | > 100 µM (inactive) | > 100 µM (inactive) | > 100 µM (inactive) | > 100 µM (inactive) | > 100 µM (inactive) | > 100 µM (inactive) | > 100 µM (inactive) |  | > 100 µM (inactive) |  |  | > 100 µM (inactive) | > 100 µM (inactive) | > 100 µM (inactive)
COC(=O)[C@@H](C)[C@H]1CC[C@@](C)(CCC2=C(C)CC3C=C(C)CCC3C2(C)C)OO1 (stereo not given in full) | 1.77 µM (inactive) | 1.66 µM (inactive) | 0.962 µM (active) | 1.6 µM (inactive) | 2.99 µM (inactive) | 1.64 µM (inactive) | 1.91 µM (inactive) | 1.87 µM (inactive) | 1.69 µM (inactive) | 1.3 µM (inactive) | 1.92 µM (inactive) | 1.57 µM (inactive) | 1.42 µM (inactive) | 1.06 µM (active) | 1.72 µM (inactive) | 0.117 µM (active)
COc1ccc(NC(=O)/C(Cc2nc3ccccc3nc2O)=N\O)c(OC)c1 | > 100 µM (inactive) | > 100 µM (inactive) | > 100 µM (inactive) | > 100 µM (inactive) | > 100 µM (inactive) | > 100 µM (inactive) | > 100 µM (inactive) | > 100 µM (inactive) | > 100 µM (inactive) | > 100 µM (inactive) | > 100 µM (inactive) | > 100 µM (inactive) | > 100 µM (inactive) | > 100 µM (inactive) | > 100 µM (inactive) | > 100 µM (inactive)
O=C(Cc1ccccc1)NN1C(=O)C(Cl)C1c1cc(Br)ccc1O (stereo not given) | 4.62 µM (inactive) | 14.1 µM (inactive) | 3.33 µM (inactive) | 10.1 µM (inactive) | 1.29 µM (inactive) | 3.03 µM (inactive) | 21.6 µM (inactive) | 5.57 µM (inactive) | 3.83 µM (inactive) | 3.35 µM (inactive) | 3.87 µM (inactive) | 1.56 µM (inactive) | 7.71 µM (inactive) | 7.29 µM (inactive) | 10.4 µM (inactive) | 5.89 µM (inactive)
